The values below are quoted from earlier work in PMC8071534, “Discovery of Potential, Dual-Active Histamine H3 Receptor Ligands with Combined Antioxidant Properties” (Molecules, 2021).

One may read the Ki as the dissociation constant of the complex between target and ligand, obtained from inhibition or displacement. For orientation: IC50 means the concentration at which inhibition is half-maximal. For orientation: Kd means the free concentration of one partner at which half of the binding sites on the other are occupied at equilibrium, for simple one-to-one binding.

The target in data set [1] is hH3R. As to conditions: reference ligands, Figure 1; cited from earlier work.
The target in data set [2] is hσ1R. As to conditions: Figure 1; cited from earlier work.
The target in data set [3] is rσ2R. As to conditions: Figure 1; cited from earlier work.
Data set [4] addresses rVAChT. As to conditions: Figure 1; cited from earlier work.
Data set [5] deals with hBuChE. As to conditions: Figure 1; cited from earlier work.
In data set [6] the target is rH3R. As to conditions: Figure 1; cited from earlier work.
Data set [7] has as its target T1, human recombinant histamine H3R stably expressed in HEK-293 cells (Homo sapiens, UniProt Q9Y5N1).
T1 construct: HEK-293 cells stably expressing the recombinant full length hH3R; expressed in transfected cells; crude membrane preparations
Set-up: method as in PMID 21237145, PMID 29960729. As to conditions: radioligand of the binding assay; read-out: KD of the radioligand at hH3R; cited from earlier work.

T1 sequence (Q9Y5N1 whole entry): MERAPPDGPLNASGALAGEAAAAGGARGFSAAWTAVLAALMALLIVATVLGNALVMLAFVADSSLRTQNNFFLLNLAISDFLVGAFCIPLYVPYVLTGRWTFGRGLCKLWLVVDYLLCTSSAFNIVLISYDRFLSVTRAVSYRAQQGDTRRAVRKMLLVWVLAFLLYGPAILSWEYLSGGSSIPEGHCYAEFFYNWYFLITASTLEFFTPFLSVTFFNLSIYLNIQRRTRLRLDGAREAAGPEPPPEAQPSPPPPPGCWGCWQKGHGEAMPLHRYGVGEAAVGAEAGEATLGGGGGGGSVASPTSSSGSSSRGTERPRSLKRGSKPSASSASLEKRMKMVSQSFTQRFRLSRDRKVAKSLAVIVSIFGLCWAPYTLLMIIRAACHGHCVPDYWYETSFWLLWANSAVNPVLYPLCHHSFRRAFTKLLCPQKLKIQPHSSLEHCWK

Consider `C#CCN(C)Cc1cc2cc(OCCCN3CCCCC3)ccc2n1C` [Contilisant], for which the inhibition constant Ki in data set [1] was 10.8 nM; in data set [2], 65.2 nM; in data set [3], 326 nM; in data set [4] it was 46.3 nM. In addition, in data set [5], the IC50 was 1690 nM.

For the compound `Clc1ccc(CCCOCCCN2CCCCC2)cc1` [Pitolisant, pitolisant], the inhibitory constant (Ki) in data set [6] was 17 nM.

Turning to `CNCCc1cnc[nH]1` [[^3H]N^α-methylhistamine], the Kd in data set [7] was 3.08 nM.
